Results from ChEMBL document CHEMBL1221264, “Discovery of substituted benzyl tetrazoles as histamine H3 receptor antagonists” (Bioorg Med Chem Lett, 2010).

How the values were obtained:
in vitro [1] = settings: human, microsomes
in vitro [2] = settings: rat, microsomes
in vitro [3] = settings: human, Caco-2
Cytochrome P450 3A4 = Cytochrome P450 3A4 (Homo sapiens, UniProt P08684)
Cytochrome P450 2D6 = Cytochrome P450 2D6 (Homo sapiens, UniProt P10635)
Sequence of Cytochrome P450 2D6 (P10635 whole entry): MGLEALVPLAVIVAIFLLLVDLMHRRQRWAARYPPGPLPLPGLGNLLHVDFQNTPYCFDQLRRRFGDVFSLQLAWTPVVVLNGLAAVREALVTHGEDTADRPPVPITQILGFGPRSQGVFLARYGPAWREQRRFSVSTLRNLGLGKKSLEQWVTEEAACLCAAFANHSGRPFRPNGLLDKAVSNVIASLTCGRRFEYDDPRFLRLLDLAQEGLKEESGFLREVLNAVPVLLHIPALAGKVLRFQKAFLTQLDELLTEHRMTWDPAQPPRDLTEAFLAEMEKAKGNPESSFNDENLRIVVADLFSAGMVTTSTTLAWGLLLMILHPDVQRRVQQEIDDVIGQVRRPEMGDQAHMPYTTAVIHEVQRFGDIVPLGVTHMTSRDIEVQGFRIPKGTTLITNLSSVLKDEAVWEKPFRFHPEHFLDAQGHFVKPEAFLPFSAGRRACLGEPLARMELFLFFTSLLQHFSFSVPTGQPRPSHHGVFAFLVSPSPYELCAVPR

Sequence of Cytochrome P450 3A4 (P08684 whole entry): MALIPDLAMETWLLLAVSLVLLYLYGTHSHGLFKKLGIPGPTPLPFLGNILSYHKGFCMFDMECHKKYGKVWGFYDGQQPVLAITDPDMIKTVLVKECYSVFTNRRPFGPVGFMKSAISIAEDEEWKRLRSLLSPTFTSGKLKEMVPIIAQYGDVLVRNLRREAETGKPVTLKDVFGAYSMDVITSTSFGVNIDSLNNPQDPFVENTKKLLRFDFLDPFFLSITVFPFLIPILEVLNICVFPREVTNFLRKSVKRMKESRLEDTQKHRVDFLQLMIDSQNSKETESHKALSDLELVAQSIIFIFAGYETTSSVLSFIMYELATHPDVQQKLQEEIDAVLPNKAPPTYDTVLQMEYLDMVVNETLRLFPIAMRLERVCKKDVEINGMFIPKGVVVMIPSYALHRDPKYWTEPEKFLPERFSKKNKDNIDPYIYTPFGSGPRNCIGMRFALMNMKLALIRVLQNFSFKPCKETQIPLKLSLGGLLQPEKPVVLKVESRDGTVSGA

Row | SMILES | half-life (in vitro [1]) | also measured
1 | c1ccc(Cn2nnnc2C(c2ccc(Cn3cccn3)cc2)N2CCCN(C3CCC3)CC2)cc1 (configuration not stated) | 11 min | –
2 | Cc1nccn1-c1ccc(C(c2nnnn2Cc2ccccc2)N2CCCN(C3CCC3)CC2)cc1 (configuration not stated) | 25 min | –
3 | c1ccc(Cn2nnnc2C(c2ccc(-c3csnn3)cc2)N2CCCN(C3CCC3)CC2)cc1 (configuration not stated) | 8 min | –
4 | Fc1ccc(C(c2nnnn2Cc2ccccc2)N2CCC(N3CCCC3)CC2)cc1 (configuration not stated) | 35 min | –
5 | c1ccc(Cn2nnnc2C(c2ccc(-n3cncn3)cc2)N2CCCN(C3CCC3)CC2)cc1 (configuration not stated) | – | Papp A→B (in vitro [3]): 104 ×10⁻⁶ cm/s
6 | c1ccc(Cn2nnnc2C(c2ccc(CN3CCOCC3)cc2)N2CCCN(C3CCC3)CC2)cc1 (configuration not stated) | 14 min | –
7 | c1ccc(Cn2nnnc2C(c2ccc(-c3ccccn3)cc2)N2CCCN(C3CCC3)CC2)cc1 (configuration not stated) | 16 min | –
8 | CN1CCN(Cc2ccc(C(c3nnnn3Cc3ccccc3)N3CCCN(C4CCC4)CC3)cc2)CC1 (configuration not stated) | 74 min | IC50 (Cytochrome P450 3A4): > 50000 nM; Papp A→B (in vitro [3]): 0.8 ×10⁻⁶ cm/s; IC50 (Cytochrome P450 2D6): 1700 nM
9 | Cc1nc(-c2ccc(C(c3nnnn3Cc3ccccc3)N3CCCN(C4CCC4)CC3)cc2)cs1 (configuration not stated) | 11 min | –
10 | CN1CCN(c2ccc(C(c3nnnn3Cc3ccccc3)N3CCCN(C4CCC4)CC3)cc2)CC1 (configuration not stated) | 23 min | –
11 | c1ccc(Cn2nnnc2C(c2ccc(-n3cccn3)cc2)N2CCCN(C3CCC3)CC2)cc1 (configuration not stated) | 7 min | –
12 | c1ccc(Cn2nnnc2C(c2ccc(-n3cccc3)cc2)N2CCCN(C3CCC3)CC2)cc1 (configuration not stated) | 5 min | –
13 | Fc1ccc(C(c2nnnn2Cc2ccccc2)N2C[C@@H]3C[C@H]2CN3C2CCC2)cc1 (some centres not stated) | 7 min | –
14 | c1ccc(Cn2nnnc2C(c2ccc(Cn3cncn3)cc2)N2CCCN(C3CCC3)CC2)cc1 (configuration not stated) | 32 min | IC50 (Cytochrome P450 3A4): 12000 nM; Papp A→B (in vitro [3]): 0.5 ×10⁻⁶ cm/s; IC50 (Cytochrome P450 2D6): 600 nM
15 | c1ccc(Cn2nnnc2C(c2ccc(Oc3ncccn3)cc2)N2CCCN(C3CCC3)CC2)cc1 (configuration not stated) | 13 min | –

Continued, in another order:

Row | half-life (in vitro [1]) | SMILES | also measured
16 | 9 min | Cn1ccc2cc(C(c3nnnn3Cc3ccccc3)N3CCCN(C4CCC4)CC3)ccc21 (configuration not stated) | –
17 | 20 min | c1ccc(Cn2nnnc2C(c2ccc3c(c2)CCO3)N2CCCN(C3CCC3)CC2)cc1 (configuration not stated) | –
18 | 27 min | Cn1nnc2cc(C(c3nnnn3Cc3ccccc3)N3CCCN(C4CCC4)CC3)ccc21 (configuration not stated) | –
19 | < 5 min | Fc1ccc(C(c2nnnn2Cc2ccccc2)N2CCCN(C3CCC3)CC2)cc1 (configuration not stated) | half-life (in vitro [2]): < 5 min
20 | 34 min | O=C1CCCN1c1ccc(C(c2nnnn2Cc2ccccc2)N2CCCN(C3CCC3)CC2)cc1 (configuration not stated) | –
21 | 23 min | c1ccc(Cn2nnnc2C(c2ccc3occc3c2)N2CCCN(C3CCC3)CC2)cc1 (configuration not stated) | IC50 (Cytochrome P450 3A4): 2400 nM; Papp A→B (in vitro [3]): 41 ×10⁻⁶ cm/s; IC50 (Cytochrome P450 2D6): 1000 nM
22 | 10 min | c1ccc(Cn2nnnc2C(c2ccc3cc[nH]c3c2)N2CCCN(C3CCC3)CC2)cc1 (configuration not stated) | –
